From the supplement of paper PMC10307832

Legend:
Experiment in all cases: relative viability (nuclei count vs DMSO), 5 days (fraction); higher = more cells survive
[1] = compound: CCn1c(-c2nonc2N)nc2c(C#CC(C)(C)O)ncc(OC[C@H]3CCCNC3)c21 + N=C(N)NC(=N)NCCc1ccccc1 [Phenformin] (partner 250 µM)
Procedure, shortened: (§1)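 After 5 days of treatment, lung cancer cells in 1536-well plates were fixed and stained in a single step (final 0.05% Triton X-100, 1% formaldehyde, 1 ug/ml Hoechst) and their nuclei counted on 4× images. Treatment had been applied by pin tool the day after seeding as one drug alone or as a fixed anchor-drug dose with five library-drug doses (not always all listed) in √10 steps. Relative viability is the nuclei count of treated wells divided by that of vehicle wells, and values are medians of duplicate plates.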

[2] = compound: CCOC1=CC=CC=C1N=NC2=C(NN(C2=O)C3=NC(=CS3)C4=CC=CC=C4)C [BAM7] + CC1(C)CCC(c2ccc(Cl)cc2)=C(CN2CCN(c3ccc(C(=O)NS(=O)(=O)c4ccc(N[C@H](CCN5CCOCC5)CSc5ccccc5)c(S(=O)(=O)C(F)(F)F)c4)cc3)CC2)C1 [Navitoclax] (partner 0.5 µM)
Procedure, shortened: as §1

[3] = compound: CCn1c(-c2nonc2N)nc2c(C#CC(C)(C)O)ncc(OC[C@H]3CCCNC3)c21
Procedure, shortened: (§2)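 Viability is treated-well nuclei as a fraction of vehicle-well nuclei, reported as the median across plates. Before counting, lung cancer cell lines were kept overnight at 37 °C in 1536-well plates, pinned with five √10-spaced library-drug doses on vehicle-anchored plates, and left 5 days without medium change, then fixed, permeabilised and Hoechst-stained in one step, imaged at 4× and counted by MetaXpress. A plate passed only if control CV was below 25% and at least one doubling occurred.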

[4] = compound: CCOC1=CC=CC=C1N=NC2=C(NN(C2=O)C3=NC(=CS3)C4=CC=CC=C4)C [BAM7]
Procedure, shortened: as §2

Row | Cell Line | relative viability ([1]; first compound 0.01 µM) | relative viability ([1]; first compound 0.03162 µM) | relative viability ([1]; first compound 0.1 µM) | relative viability ([1]; first compound 0.3162 µM) | relative viability ([1]; first compound 1 µM) | relative viability ([2]; first compound 0.5 µM) | relative viability ([2]; first compound 5 µM) | relative viability ([2]; first compound 15.81 µM) | relative viability ([2]; first compound 50 µM) | relative viability ([3]; 0.01 µM) | relative viability ([3]; 0.03162 µM) | relative viability ([3]; 0.1 µM) | relative viability ([3]; 0.3162 µM) | relative viability ([3]; 1 µM) | relative viability ([4]; 0.5 µM) | relative viability ([4]; 5 µM) | relative viability ([4]; 15.81 µM) | relative viability ([4]; 50 µM)
1 | LC-2-ad | 0.571 | 0.523 | 0.556 | 0.537 | 0.614 | 0.548 | 0.532 | 0.422 | 0.464 | 0.903 | 0.951 | 0.964 | 0.949 | 0.989 | 0.961 | 1 | 0.939 | 1.01
2 | CAL-12T | 0.506 | 0.579 | 0.588 | 0.554 | 0.469 | 1.1 | 1.2 | 1.14 | 1.26 | 1.12 | 0.997 | 0.94 | 0.973 | 0.997 | 1.05 | 1.01 | 0.952 | 1.07
3 | RERF-LC-KJ | 0.391 | 0.408 | 0.438 | 0.356 | 0.416 | 0.908 | 0.805 | 0.907 | 0.847 | 0.959 | 0.97 | 0.99 | 0.966 | 1.05 | 0.94 | 0.913 | 0.745 | 0.812
4 | NCI-H1650 | 0.457 | 0.478 | 0.404 | 0.277 | 0.303 | 1.46 | 1.26 | 1.15 | 1.15 | 0.941 | 0.994 | 0.877 | 0.841 | 0.833 | 1.02 | 0.884 | 0.826 | 1.04
5 | BEN | 0.276 | 0.292 | 0.28 | 0.297 | 0.287 | 0.0506 | 0.068 | 0.0675 | 0.068 | 0.988 | 1.03 | 0.735 | 0.935 | 0.962 | 1.04 | 1.05 | 1.11 | 0.981
6 | EMC-BAC-2 | 0.487 | 0.491 | 0.578 | 0.502 | 0.52 | 1.2 | 1.23 | 1.08 | 1.17 | 0.919 | 0.725 | 0.933 | 0.937 | 1.04 | 1.03 | 1.08 | 1.22 | 1.02
7 | ABC-1 | 0.244 | 0.204 | 0.236 | 0.228 | 0.255 | – | – | – | – | 0.934 | 0.869 | 0.864 | 0.768 | 0.696 | 0.919 | 1.05 | 0.855 | 1.14
8 | NCI-H1299 | – | – | – | – | – | 1.05 | 1.08 | 1.07 | 1.06 | 0.984 | 1.05 | 1.01 | 1.01 | 1.04 | 1.01 | 1.06 | 1.01 | 1.01
9 | EBC-1 | – | – | – | – | – | 0.403 | 0.389 | 0.382 | 0.423 | 0.986 | 0.963 | 0.973 | 0.883 | 0.757 | 1.05 | 1.04 | 0.952 | 1.06
10 | NCI-H2342 | 0.532 | 0.627 | 0.598 | 0.545 | 0.574 | – | – | – | – | 0.957 | 0.881 | 0.99 | 0.91 | 0.964 | 0.851 | 0.994 | 0.89 | 0.708
11 | NCI-H650 | 0.435 | 0.414 | 0.429 | 0.415 | 0.444 | – | – | – | – | 0.788 | 0.854 | 0.854 | 0.998 | 0.832 | 0.944 | 1.1 | 0.955 | 1.22
12 | NCI-H358 | 0.39 | 0.321 | 0.338 | 0.315 | 0.32 | – | – | – | – | 0.905 | 1.01 | 0.935 | 0.912 | 0.913 | 0.96 | 1.19 | 0.942 | 0.912
13 | NCI-H1563 | 0.623 | 0.618 | 0.701 | 0.63 | 0.649 | – | – | – | – | 1.01 | 0.984 | 0.96 | 0.901 | 0.89 | 0.967 | 1.04 | 0.995 | 1.02
14 | SW 900 | 0.505 | 0.621 | 0.671 | 0.601 | 0.49 | – | – | – | – | 0.796 | 0.73 | 0.76 | 0.822 | 0.892 | 0.781 | 0.826 | 0.708 | 1.03
15 | IA-LM | – | – | – | – | – | 0.689 | 0.556 | 0.556 | 0.658 | 1.01 | 1.05 | 1.01 | 0.852 | 0.853 | 0.988 | 0.979 | 0.85 | 1.15
16 | NCI-H1703 | – | – | – | – | – | 1.35 | 1.13 | 0.941 | 0.872 | 0.828 | 0.973 | 0.839 | 0.788 | 0.612 | 1.04 | 0.989 | 0.808 | 1
17 | LCLC-103H | 0.323 | 0.355 | 0.33 | 0.329 | 0.327 | – | – | – | – | 0.964 | 0.988 | 0.929 | 0.938 | 1.09 | 0.966 | 1.04 | 0.983 | 1.04
18 | NCI-H1648 | – | – | – | – | – | – | – | – | – | 0.922 | 0.869 | 0.775 | 0.851 | 0.973 | 0.786 | 0.754 | 0.608 | 0.708
